Assays:
[1] = test system: ALK phosphorylation in NCI-H2228 and Karpas-299 cell lines; experiment: Immunoblot of ALK phosphorylation and downstream signaling; type: cell-based; conditions: 2 h, dose-dependent
[2] = test system: patients without treatment with other ALK inhibitors; conditions: phase I study, 24 patients, cited from earlier work

Row | Structure (SMILES) | autophosphorylation of ALK; phosphorylation of AKT and STAT3 (immunoblot) [1] | ORR, ALK+ patients ([2]; ALK+) [%] | ORR, NRTK1–3+ patients ([2]; NRTK1–3+) [%] | ORR, ROS1+ patients ([2]; ROS1+) [%]
1 | Cc1cc(Nc2ncc(Cl)c(Nc3ccccc3S(=O)(=O)C(C)C)n2)c(OC(C)C)cc1C1CCNCC1 [Ceritinib] | can inhibit autophosphorylation of ALK | – | – | –
2 | CN1CCN(c2ccc(C(=O)Nc3n[nH]c4ccc(Cc5cc(F)cc(F)c5)cc34)c(NC3CCOCC3)c2)CC1 [entrectinib] | – | 57 | 100 | 85

From PMC5704298 (ACS Central Science, 2017)
